Results: US20160309717A1, “Compounds with Nematicidal Activity” (BAYER CROPSCIENCE AKTIENGESELLSCHAFT, priority 2013, published 2016)

How the values were obtained:
[1] = Measurement of log P values by HPLC on reversed phase columns (EEC directive 79/831 Annex V.A8); assay type: physicochemical; conditions: for LogP [b] / chromatographic logP: LC-MS at pH 2.7, 0.1% formic acid in water / acetonitrile; for LogP [c]: LC-MS at pH 7.8, 0.001 molar ammonium hydrogen carbonate in water / acetonitrile; for chromatographic logP: reversed phase HPLC column, read-out: LogP [b]
Procedure: Measurement of Log P-Values:
Measurement of log P values was performed according EEC directive 79/831 Annex V.A8 by HPLC (High Performance Liquid Chromatography) on reversed phase columns with the following methods:
^[a] Measurement was done at pH 2.3 with 0.1% phosphoric acid and acetonitrile as eluent with a linear gradient from 10% acetonitrile to 95% acetonitrile.
^[b]measurement of LC-MS was done at pH 2.7 with 0.1% formic acid in water and with acetonitrile (contains 0.1% formic acid) as eluent with a linear gradient from 10% acetonitrile to 95% acetonitrile.
^[c] Measurement with LC-MS was done at pH 7.8 with 0.001 molar ammonium hydrogen carbonate solution in water as eluent with a linear gradient from 10% acetonitrile to 95% acetonitrile.
Calibration was done with not branched alkan2-ones (with 3 to 16 carbon atoms) with known log P-values (measurement of log P values using retention times with linear interpolation between successive alkanones). Lambda-maX-values were determined using UV-spectra from 200 nm to 400 nm and the peak values of the chromatographic signals.

Meloidogyne incognita = Meloidogyne incognita test, gall formation on salad seedlings in sand; assay type: in vivo; conditions: application rate 20 ppm; after 14 days; 100% = no galls found
Procedure: Solvent: 125.0 Parts by Weight of Acetone
To produce a suitable preparation of active compound, 1 part by weight of active compound is mixed with the stated amount of solvent, and the concentrate is diluted with water to the desired concentration.
Vessels are filled with sand, a solution of the active ingredient, a suspension containing eggs and larvae of the southern root-knot nematode (Meloidogyne incognita) and salad seeds. The salad seeds germinate and the seedlings grow. Galls develop in the roots.
After 14 days the nematicidal activity is determined on the basis of the percentage of gall formation. 100% means no galls were found and 0% means the number of galls found on the roots of the treated plants was equal to that in untreated control plants.

Haemonchus contortus = test: microbe, parasite or virus in culture; conditions: 120 h, read-out: activity (percentage of larval mortality)
Procedure: (§1) Solvent: Dimethyl Sulfoxide
(§2) To produce a suitable preparation of active compound, 10 mg of active compound are dissolved in 0.5 ml solvent, and the concentrate is diluted with “Ringer's solution” to the desired concentration.
Approximately 40 larvae of the red stomach worm (Haemonchus contortus) are transferred into a test tube containing compound solution.
After 5 days percentage of larval mortality are recorded. 100% efficacy means all larvae are killed, 0% efficacy means no larvae are killed.

Cooperia curticei = Cooperia curticei test (COOPCU), larval mortality
Procedure: as §1, §2
Approximately 40 nematode larvae (Cooperia curticei) are transferred into a test tube containing the compound solution.
After 5 days percentage of larval mortality is recorded. 100% efficacy means all larvae are killed; 0% efficacy means no larvae are killed.

| SMILES | LogP [b] [1] | LogP [c] [1] | further results |
| --- | --- | --- | --- |
| O=C(NCC1(c2cccc(Cl)n2)CC1)c1ccccc1I [Example 3] | 2,98 | 2,96 |  |
| O=C(NCC1(c2cccc(Cl)n2)CC1)c1ccccc1C(F)(F)F [Example 4] | 3 | 2,99 |  |
| O=C(NCC1(c2cccc(Cl)n2)CC1)c1cccnc1Cl [Example 5] | ^[b]2,11 ^[c]2,11 | ^[b]2,11 ^[c]2,11 |  |
| Cn1cc(C(=O)NCC2(c3cccc(Cl)n3)CC2)c(C(F)F)n1 [Example 6] | 2,25 | 2,24 |  |
| O=C(NCC1(c2ccc(Br)cn2)CC1)c1ccccc1C(F)(F)F [Example 7] | ^[b]3,1 ^[c]3,1 | ^[b]3,1 ^[c]3,1 |  |
| O=C(NCC1(c2ccc(Br)cn2)CC1)c1c(F)cccc1F [Example 9] | ^[b]2,71 ^[c]2,71 | ^[b]2,71 ^[c]2,71 |  |
| O=C(NCC1(c2ccc(Br)cn2)CC1)c1cccnc1C(F)(F)F [Example 10] | 2,51 | 2,5 | nematicidal activity on the basis of the percentage of gall formation (Meloidogyne incognita): 90% |
| O=C(NCC1(c2ccc(Br)cn2)CC1)c1cccnc1Cl [Example 11] | 2,17 | 2,18 |  |
| Cn1cc(C(=O)NCC2(c3ncc(C(F)(F)F)cc3Cl)CC2)c(C(F)F)n1 [Example 13, N-[[1-[3-chloro-5-(trifluoromethyl)-2-pyridyl]cyclopropyl]methyl]-3-(difluoromethyl)-1-methyl-pyrazole-4-carboxamide] |  |  | chromatographic logP [1]: 2.63; mortality at 20 ppm (Haemonchus contortus): 80%; nematicidal activity on the basis of the percentage of gall formation (Meloidogyne incognita): 100%; mortality at 20 ppm (Cooperia curticei; Cooperia curticei, 120 h, read-out: activity (percentage of larval mortality)): 100% |
| O=C(NCC1(c2ncc(Br)cc2Cl)CC1)c1cccnc1C(F)(F)F [Example 14, N-{[1-(5-bromo-3-chloropyridin-2-yl)cyclopropyl]methyl}-2-(trifluoromethyl)nicotinamide] |  |  | chromatographic logP [1]: 2.88 |
| O=C(NCC1(c2ccc(Cl)cn2)CC1)c1ccccc1C(F)(F)F [Example 15] | 2,91 | 2,96 | nematicidal activity on the basis of the percentage of gall formation (Meloidogyne incognita): 70%; activity (percentage of larval mortality) (Cooperia curticei; application rate 20 ppm, after 5 days, 100% = all larvae killed): 90% |

The next lines start with results.

| LogP [b] [1] | LogP [c] [1] | SMILES | further results |
| --- | --- | --- | --- |
| 2,42 | 2,41 | O=C(NCC1(c2cccc(Cl)n2)CC1)c1cccnc1C(F)(F)F [Example 1] |  |
| 2,63 | 2,62 | O=C(NCC1(c2cccc(Cl)n2)CC1)c1c(F)cccc1F [Example 2] |  |
| 3,1 | 3,09 | O=C(NCC1(c2ccc(Br)cn2)CC1)c1ccccc1I [Example 8] |  |
| 2,31 | 2,33 | Cn1cc(C(=O)NCC2(c3ccc(Br)cn3)CC2)c(C(F)F)n1 [Example 12] |  |
